Data from the NIST ThermoML archive (doi:10.1021/je101146f).

Legend:
[1] = Ring tensiometer
[2] = xn = mol fraction of the nth substance listed; conditions: Ring tensiometer

CCn1cc[n+](C)c1.O=S(=O)([N-]S(=O)(=O)C(F)(F)F)C(F)(F)F
[1]
Conditions | surface tension liquid-gas [mN/m]
293.15 K | 36.14
298.15 K | 35.9
303.13 K | 35.56
308.15 K | 35.35
313.15 K | 35.1

CCn1cc[n+](C)c1.O=S(=O)([N-]S(=O)(=O)C(F)(F)F)C(F)(F)F + C1CCOC1
surface tension liquid-gas [mN/m], [2]
Conditions | x1 = 0.1037 | x1 = 0.2024 | x1 = 0.3255 | x1 = 0.3841 | x1 = 0.4425 | x1 = 0.5469 | x1 = 0.6863 | x1 = 0.7697 | x1 = 0.9177 | x1 = 1
293.15 K | 28.72 | 29.94 | 31.05 | 31.62 | 32.12 | 32.98 | 34.07 | 34.55 | 35.65 | 36.14
298.15 K | 28.1 | 29.42 | 30.62 | 31.18 | 31.76 | 32.63 | 33.81 | 34.38 | 35.46 | 35.9
303.13 K | 27.52 | 28.84 | 30.18 | 30.82 | 31.41 | 32.39 | 33.52 | 34.15 | 35.22 | 35.56
308.15 K | 26.88 | 28.33 | 29.84 | 30.52 | 31.07 | 32.08 | 33.26 | 33.92 | 34.98 | 35.35

CCn1cc[n+](C)c1.O=S(=O)([N-]S(=O)(=O)C(F)(F)F)C(F)(F)F + CC#N
surface tension liquid-gas [mN/m], [2]
Conditions | x1 = 0.0533 | x1 = 0.1886 | x1 = 0.337 | x1 = 0.4724 | x1 = 0.652 | x1 = 0.8245 | x1 = 0.924 | x1 = 1
293.15 K | 30.48 | 32.72 | 34.02 | 34.77 | 35.38 | 35.83 | 35.98 | 36.14
298.15 K | 29.8 | 32.1 | 33.55 | 34.42 | 35.11 | 35.6 | 35.76 | 35.9
303.13 K | 29.26 | 31.63 | 33.15 | 33.99 | 34.8 | 35.29 | 35.5 | 35.56
308.15 K | 28.65 | 31.16 | 32.78 | 33.61 | 34.49 | 34.99 | 35.22 | 35.35
313.15 K | 28.04 | 30.69 | 32.36 | 33.28 | 34.2 | 34.75 | 35 | 35.1

CC#N [acetonitrile]
[1]
Conditions | surface tension liquid-gas [mN/m]
293.15 K | 28.95
298.15 K | 28.37
303.13 K | 27.66
308.15 K | 27.03
313.15 K | 26.43

CC#N [acetonitrile] + CCn1cc[n+](C)c1.O=S(=O)([N-]S(=O)(=O)C(F)(F)F)C(F)(F)F
[2], x2 = 0
Conditions | surface tension liquid-gas [mN/m]
293.15 K | 28.95
298.15 K | 28.37
303.13 K | 27.66
308.15 K | 27.03
313.15 K | 26.43

C1CCOC1 [tetrahydrofuran]
[1]
Conditions | surface tension liquid-gas [mN/m]
293.15 K | 27.31
298.15 K | 26.68
303.13 K | 26.04
308.15 K | 25.38

C1CCOC1 [tetrahydrofuran] + CCn1cc[n+](C)c1.O=S(=O)([N-]S(=O)(=O)C(F)(F)F)C(F)(F)F
[2], x2 = 0
Conditions | surface tension liquid-gas [mN/m]
293.15 K | 27.31
298.15 K | 26.68
303.13 K | 26.04
308.15 K | 25.38
